# Measurements: patent publication US8202886B2, “Small molecule E2F inhibitor” (H. Lee Moffitt Cancer Center and Research Institute, Inc., priority 2008, dated 2012)
# Tested on: 8226-s, 8226-dox40 and 8226-MR20
# Experiment: PARP cleavage western in drug sensitive and resistant 8226 lines
# Format: cell-based, human
# Settings: 24 hours; 10 μM cisplatin or 10, 20 or 40 μM HLM006474
# Protocol: Cells were collected 24 hours post drug exposure and extracts subjected to western blotting using antibodies to the indicated proteins. Cleavage of PARP indicates apoptosis.
row,Compound,PARP cleavage (apoptosis) in sensitive versus resistant lines
1,"N.N.[Cl][Pt][Cl] [cisplatin, reference compound]",Minimal PARP cleavage

# Tested on: E2F4-deficient MEFs
# Experiment: not given
# Settings: earlier work of the inventors (Ma et al., 2004); cited from earlier work
row,Compound,sensitivity of E2F4-deficient MEFs to other drugs
1,CC[C@H](CO)Nc1nc(NCc2ccccc2)c2ncn(C(C)C)c2n1 [roscovitine],more sensitive
2,CC(C)(C)c1cnc(CSc2cnc(NC(=O)C3CCNCC3)s2)o1 [SNS-032],more sensitive
3,"N.N.[Cl][Pt][Cl] [cisplatin, reference compound]",more sensitive
4,"COc1cc([C@@H]2c3cc4c(cc3[C@@H](O[C@@H]3O[C@@H]5CO[C@@H](C)O[C@H]5[C@H](O)[C@H]3O)[C@H]3COC(=O)[C@H]23)OCO4)cc(OC)c1O [VP16, etoposide]",more sensitive
5,CN1CC[C@H](c2c(O)cc(O)c3c(=O)cc(-c4ccccc4Cl)oc23)[C@H](O)C1 [flavopiridol],more sensitive
